In patent US7691624B2, “Cancer cell detecting devices” (Academia Sinica, priority 2003, dated 2010):

Key:
CL1-0 cancer cells [1] = assay: Stained cells spread onto cover slip, fluorescent cells counted; type: cell-based; details: 0.02 μM AO, 5 minutes, cover slip, LED
Procedure: Further, the role of the ratio of the cells stained by Compound 2/AO in cancer diagnosis was studied. Specifically, CL1-0 cancer cells, NIH3T3 normal cells, and their 1:10 mixture were respectively stained with 0.02 μM AO and 1.5 μM Compound 2 for 5 minutes in eppendorfs. Each sample was then taken from the eppendorf and spread onto a cover slip. Fluorescence emissions were recorded by a color camera upon an LED illumination. […] A statistical histogram of the ratio of the cell stained with Compound 2/AO to the ratio of the CL1-0 cells to the sum of NIH3T3 and CL1-0 cells was plotted. Each spot on the histogram represented an average of 5-10 measurements from a single sample.

MRC-5 normal cells = assay: Fluorescence of stained cells in eppendorf under LED, recorded by camera; type: cell-based, human; details: for Numbers of cells required to distinguish cancer cells and normal cells: Normal cells (M) MRC-5
Procedure: (§1) Human lung CL1-0 cancer cells or MRC-5 normal cells were incubated with 0.5 μM of Compound 2 and acridine orange (AO). After incubation in standard culture medium for 1 hour, the non-fixed cells were removed by washing the culture three times with phosphate buffered saline (PBS). The fixed cells were collected in an eppendorf by trypsinization. The eppendorf was centrifuged and then illuminated by an light emitting diode (LED) emitting excitation light with a center wavelength at 470 nm. A conventional digital camera was used to record the fluorescence. Table 1 summarizes the numbers of cells required to distinguish cancer cells from normal cells based on fluorescence emission of Compound 2 and AO recorded by a camera under different experimental conditions. Specifically, Compound 2 and AO were incubated with four different cells in eppendorf, i.e., MRC-5 normal cells, primary fibroblast, CL1-0 cancer cells, and HeLa cancer cells.

CL1-0 cancer cells [2] = assay: as above; type: cell-based, human; details: for Numbers of cells required to distinguish cancer cells and normal cells: Cancer cells (C) CL1-0
Procedure: as §1

HeLa cancer cells = assay: as above; type: cell-based; details: Cancer cells (H) HeLa
Procedure: as §1

primary fibroblast = assay: as above; type: cell-based; details: Normal cells (F) primary fibroblast
Procedure: as §1

Hum24 quadruplex = assay: Temperature-dependent CD analysis; type: binding, human
Description: Eight DNA quadruplexes and their complexes with compound 2 were subjected to CD analysis. CD spectra were averaged 10 scans on a Jasco J-715 spectropolarimeter with a 2 nm bandwidth. The scan speed was 50 nm/min and the step resolution was 0.2 nm.
Further, Hum24 and its complexes with compounds 2, 4, 6, and 8 were subjected to temperature-dependent CD analysis.

[3] = Fluorescence analysis in aqueous solution; type: physicochemical; details: λex≈430 nm, no DNA
Procedure: (§2) Compound 2 was mixed with eleven DNAs and subjected to fluorescence analysis at λex≈430 nm, using a Hitachi F4010 spectrofluorimeter with a 2 nm bandwidth in a 1-cm cell. Fluorescence analysis was also carried out for compound 4 in the presence of Hum24. […] Further, the fluorescence peaks for a complex of compound 2 and a DNA duplex and a complex of compound 2 and a DNA quadruplex were at ˜550 nm and ˜575 nm, respectively.

DNA = assay: Fluorescence analysis in the presence of a DNA; type: binding; details: λex≈430 nm; compound 2 with eleven DNAs, compound 4 with Hum24
Procedure: as §2

CN(C)c1ccc2cc3ccc(N(C)C)cc3nc2c1 [AO, acridine orange, reference compound]
number of stained cells showing fluorescence (CL1-0 cancer cells [1]): 150
fluorescence emission in eppendorf (MRC-5 normal cells; 0.5 μM, 1 hour, LED 470 nm): fluorescence emission was detected
Numbers of cells required to distinguish cancer cells and normal cells (MRC-5 normal cells; 0.1 μM/30 min): 3,000 (M)
Numbers of cells required to distinguish cancer cells and normal cells (MRC-5 normal cells; 0.5 μM/1 hr): 2,000 (M)
fluorescence emission in eppendorf (CL1-0 cancer cells [2]; 0.5 μM, 1 hour, LED 470 nm): fluorescence emission was detected
Numbers of cells required to distinguish cancer cells and normal cells (CL1-0 cancer cells [2]; 0.1 μM/30 min): 2,000 (C)
Numbers of cells required to distinguish cancer cells and normal cells (CL1-0 cancer cells [2]; 0.5 μM/1 hr): 1,000 (C)
Numbers of cells required to distinguish cancer cells and normal cells (HeLa cancer cells; 0.05 μM/1 hr): 3,000 (H)
Numbers of cells required to distinguish cancer cells and normal cells (HeLa cancer cells; 0.1 μM/1 hr): 2,000 (H)
Numbers of cells required to distinguish cancer cells and normal cells (primary fibroblast; 0.05 μM/1 hr): 4,000 (F)
Numbers of cells required to distinguish cancer cells and normal cells (primary fibroblast; 0.1 μM/1 hr): 2,000 (F)

C[n+]1ccnc(C=Cc2ccc3[nH]c4ccc(C=Cc5c[n+](C)ccn5)cc4c3c2)c1.[I-].[I-] [Compound 6, 3,6-bis-(2-(4-methylpyrazin-4-ium-2-yl)-vinyl)-9H-carbazole diiodide]
melting temperature of Hum24 quadruplex in the presence of compound (Hum24 quadruplex): increased

C[n+]1ccccc1C=Cc1ccc2[nH]c3ccc(C=Cc4cccc[n+]4C)cc3c2c1.[I-].[I-] [Compound 4, 3,6-bis-(2-(1-methylpyridinium-2-yl)-vinyl)-9H-carbazole diiodide]
fluorescence in an aqueous solution [3]: weak
melting temperature of Hum24 quadruplex in the presence of compound (Hum24 quadruplex): increased
increase of fluorescence intensity in the presence of a DNA (DNA): two orders of magnitude

C[n+]1ccc(C=Nc2ccc3[nH]c4ccc(N=Cc5cc[n+](C)cc5)cc4c3c2)cc1.[I-].[I-] [Compound 8, N,N′-bis-((1-methylpyridinium-4-yl)methylidene)-9H-carbazole-3,6-diamine diiodide]
melting temperature of Hum24 quadruplex in the presence of compound (Hum24 quadruplex): increased
